From a compilation of properties of binary mixtures (doi:10.1016/j.molliq.2021.118393)

Experiment: xn = mol fraction of the nth substance listed
Conditions: 100 kPa

Row | Compound | electrical conductivity (293.15 K, x2 = 0.333) | speed of sound (293.15 K, x2 = 0.333) | electrical conductivity (298.15 K, x2 = 0.333) | speed of sound (298.15 K, x2 = 0.333) | electrical conductivity (313.15 K, x2 = 0.333) | speed of sound (313.15 K, x2 = 0.333) | viscosity (313.15 K, x2 = 0.333) | electrical conductivity (318.15 K, x2 = 0.333) | speed of sound (318.15 K, x2 = 0.333) | viscosity (318.15 K, x2 = 0.333) | electrical conductivity (323.15 K, x2 = 0.333) | speed of sound (323.15 K, x2 = 0.333) | viscosity (323.15 K, x2 = 0.333) | electrical conductivity (333.15 K, x2 = 0.333) | speed of sound (333.15 K, x2 = 0.333) | viscosity (333.15 K, x2 = 0.333) | further results
1 | O=C(O)CCl + CCCC[N+](CCCC)(CCCC)CCCC.O=S(=O)([O-])O | 0.012 S/m | 1539.9 m/s | 0.0189 S/m | 1523.1 m/s | 0.0508 S/m | 1475.5 m/s | 176.3 mPa·s | 0.0669 S/m | 1460.9 m/s | 132.2 mPa·s | 0.0861 S/m | 1446.5 m/s | 101.9 mPa·s | 0.133 S/m | 1418.6 m/s | 64.29 mPa·s | electrical conductivity (293.15 K, x2 = 0.5): 0.0017 S/m; speed of sound (293.15 K, x2 = 0.5): 1623.8 m/s; electrical conductivity (298.15 K, x2 = 0.5): 0.0032 S/m; speed of sound (298.15 K, x2 = 0.5): 1594.7 m/s; electrical conductivity (303.15 K, x2 = 0.5): 0.0053 S/m; speed of sound (303.15 K, x2 = 0.5): 1569.4 m/s; electrical conductivity (308.15 K, x2 = 0.5): 0.0037 S/m; speed of sound (308.15 K, x2 = 0.5): 1547 m/s; electrical conductivity (318.15 K, x2 = 0.5): 0.0143 S/m; speed of sound (318.15 K, x2 = 0.5): 1509 m/s; viscosity (318.15 K, x2 = 0.5): 769 mPa·s; electrical conductivity (323.15 K, x2 = 0.5): 0.0226 S/m; speed of sound (323.15 K, x2 = 0.5): 1492.3 m/s; viscosity (323.15 K, x2 = 0.5): 546 mPa·s; electrical conductivity (328.15 K, x2 = 0.333): 0.108 S/m; speed of sound (328.15 K, x2 = 0.333): 1432.5 m/s; viscosity (328.15 K, x2 = 0.333): 81.5 mPa·s; electrical conductivity (328.15 K, x2 = 0.5): 0.0306 S/m; speed of sound (328.15 K, x2 = 0.5): 1476.3 m/s; viscosity (328.15 K, x2 = 0.5): 396 mPa·s
2 | O=C(O)CCl + CCC[N+](CCC)(CCC)CCC.[Br-] | 0.0435 S/m | 1550.2 m/s | 0.0673 S/m | 1535.1 m/s | 0.177 S/m | 1491.4 m/s | 45.76 mPa·s | 0.228 S/m | 1477.4 m/s | 34.88 mPa·s | 0.284 S/m | 1463.4 m/s | 27.18 mPa·s | 0.407 S/m | 1436.1 m/s | 17.67 mPa·s | viscosity (293.15 K, x2 = 0.333): 178.6 mPa·s; viscosity (298.15 K, x2 = 0.333): 119.4 mPa·s; electrical conductivity (303.15 K, x2 = 0.333): 0.0981 S/m; speed of sound (303.15 K, x2 = 0.333): 1520.3 m/s; viscosity (303.15 K, x2 = 0.333): 84.3 mPa·s
